Measured values: paper PMC9505218, “Nitrostilbenes: Synthesis and Biological Evaluation as Potential Anti-Influenza Virus Agents” (Pharmaceuticals, 2022)
Values joined by “and” are separate entries in the source; they are usually repeats but may differ in a detail not shown here. Equal values may be shown once. “Also recorded” adds a separate entry of the source. Read-outs that look alike come from different tables or passages of the source.

Experiments:
GSH level = tested on: GSH level; parameters: method as in PMID 15838800; details: infected conditions; cited from earlier work
[1] = tested on: influenza A Puerto Rico 8/34/H1N1 (PR8) virus; test: microbe, parasite or virus in culture; type: cell-based; details: for IC50: Influenza A virus, A549, 24 h, read-out: IC50 (concentration causing 50% reduction in viral infection); for Selectivity Index (SI): ratio CC50/IC50, A549
[2] = tested on: influenza A PR/8/H1N1 virus; type: cell-based; details: supernatants from A549 treated with 10-30 μg/mL, 24 h
MTT cytotoxicity assay = type: cell-based, human; details: human
Experimental: (§1) The cytotoxicity of RSV derivatives was evaluated on A549 cells using MTT (3-(4,5-dimethylthiazol-2-yl)-2,5-diphenyl tetrazolium bromide) reagent (Sigma-Aldrich, St. Louis, MO, USA). In this assay, cells were seeded in a 96-well plate at a concentration of 2 × 10^4/well in DMEM without phenol red and supplemented with 10% FBS. The compounds were dissolved in DMSO and added to the cell monolayer. After 24 h, 10 µL of the 5 mg/mL solution of MTT was added to the cell culture, which was incubated at 37 °C for 3 h. Then, the medium was solubilized in absolute isopropanol containing 0.1 N HCl. The absorbance of converted dye was measured in an ELISA plate reader at a wavelength of 590 nm. The results were used to calculate the 50% cytotoxic concentration (CC50), defined as the concentration of RSV derivatives required to reduce cell viability by 50% compared with the solvent-treated (DMSO) control condition.

[3] = tested on: influenza A PR/8/H1N1 virus; type: cell-based
[4] = tested on: GSH-mediated antioxidant response; test: Glutathione assay in infected A549 cells; type: cell-based, human; details: A549, 24 h PR8 infection and treatment
Experimental: The total glutathione was analyzed by the Glutathione Assay Kit (ADI-900-160 Enzo) following the manufacturer’s instructions. For GSSG quantification, the samples were deproteinized with metaphosphoric acid, and an aliquot was incubated with 2-vinylpyridine to derivatize the reduced form, GSH [46]. The GSH levels were obtained by the subtraction of GSSG from the total glutathione and then normalized to the protein content of each sample determined by the Bradford method (Bio-Rad, Hercules, CA, USA).

[5] = tested on: influenza A PR/8/H1N1 virus; type: cell-based; remark: listed apart in the source
A549 cells = test: MTT cytotoxicity assay; type: cell-based, human
Experimental: as §1

[6] = A549, MTT, 24 h, read-out: CC50 (concentration required to reduce cell viability by 50%)

Row | Compound | IC50 [1] | Selectivity Index (SI) [1] | rescue of GSH-mediated antioxidant response (total glutathione, GSH/GSSG) [4] | CC50 at 24 h (MTT cytotoxicity assay) | also measured
1 | Oc1ccc(C=Cc2cc(O)cc(O)c2)cc1 [RSV, 3,4′,5-trihydroxystilbene] | – | – | – | – | rescue of GSH level (GSH level): did not rescue
2 | O=[N+]([O-])c1ccc(/C=C/c2ccc(O)cc2)cc1 [Compound 7] | 19.5 µg/mL and 80 µM | 5.9 | do not rescue | – | HA protein expression on MDCK cells infected with supernatants [2]: markedly reduced; CC50 at 24 h (MTT cytotoxicity assay; [6]): 116 µg/mL and 481 µM; viral titer / viral particle production (HAU) [3]: markedly decreased; also recorded: drastically reduced; early viral nucleoprotein (NP) expression [5]: decrease
3 | O=[N+]([O-])c1ccc(/C=C/c2ccc(O)c(Cl)c2)cc1 [Compound 6] | 17.1 µg/mL and 62 µM | 12.4 | do not rescue | – | inhibition of HA expression [1]: 75%; HA protein expression on MDCK cells infected with supernatants [2]: markedly reduced; CC50 at 24 h (MTT cytotoxicity assay; [6]): 212 µg/mL and 770 µM; viral titer / viral particle production (HAU) [3]: markedly decreased; also recorded: drastically reduced; early viral nucleoprotein (NP) expression [5]: decrease
4 | Oc1ccc(/C=C/c2ccccc2)cc1Cl [Compound 1] | 20.7 µg/mL and 89 µM | 4.2 | – | 87.3 µg/mL and 378 µM | –
5 | O=[N+]([O-])c1ccc(/C=C/c2ccc(O)c(Br)c2)cc1 [Compound 12, (E)-2-Bromo-4-(4-Nitrostyryl)Phenol] | – | – | do not rescue | – | cytotoxicity on the A549 cell monolayer (A549 cells): did not show cytotoxicity; melting point: 200.2 to 200.4 °C
6 | O=[N+]([O-])c1cc(/C=C/c2ccc(Cl)cc2)ccc1O [Compound 13, (E)-4-(4-Chlorostyryl)-2-Nitrophenol] | – | – | do not rescue | – | cytotoxicity on the A549 cell monolayer (A549 cells): did not show cytotoxicity; early viral nucleoprotein (NP) expression [5]: decrease; melting point: 176.5 to 177.9 °C
7 | Oc1ccc(/C=C/c2ccc(Cl)cc2Cl)cc1 [Compound 3] | 12.2 µg/mL and 46 µM | 2.4 | – | 30.3 µg/mL and 114 µM | –
8 | COc1ccc(/C=C/c2ccc(O)cc2)cc1 [Compound 9] | 31.7 µg/mL and 104 µM | 3.3 | – | 106 µg/mL and 466 µM | –
9 | Oc1ccc(/C=C/c2ccc(Cl)cc2Cl)cc1Cl [Compound 2] | 13.5 µg/mL and 45 µM | 2.9 | – | 39.5 µg/mL and 131 µM | –
10 | Oc1ccc(/C=C/c2ccc(C(F)(F)F)cc2)cc1Cl [Compound 4] | 14.6 µg/mL and 48 µM | 2.6 | – | 38.8 µg/mL and 129 µM | –
11 | Oc1ccc(/C=C/c2ccc(C(F)(F)F)cc2)cc1 [Compound 5] | 23.4 µg/mL and 88 µM | 2.5 | – | 59 µg/mL and 223 µM | –
12 | N#Cc1ccc(/C=C/c2ccc(O)cc2)cc1 [Compound 8] | 45.1 µg/mL and 203 µM | 2 | – | 92 µg/mL and 415 µM | –
